Assay results reported in ChEMBL document CHEMBL2434919, “Synthesis, cytotoxicity, and DNA-binding property of berberine derivatives” (Med Chem Res, 2013).
The source made the active and inactive calls. The calls are words filed in the database; no cut-off is given here.

What was measured:
[1] = system: DNA; assay: Binding affinity to calf thymus DNA assessed as hypochromicity at 20 uM after 2 hrs by UV-Vis absorption titration analysis; assay type: nucleic-acid assay; settings: Bos taurus
[2] = system: DNA; assay: Binding affinity to calf thymus DNA assessed as change in melting temperature at 100 uM by spectroscopic analysis; assay type: nucleic-acid assay; settings: Bos taurus
[3] = system: Bel-7402; assay: Cytotoxicity against human Bel7402 cells after 48 hrs by MTT assay; assay type: functional, cell-based; settings: Bel-7402, 48 h
[4] = system: DNA; assay: Binding affinity to calf thymus DNA assessed as intercalation after 2 hrs by UV-Vis absorption titration analysis; assay type: nucleic-acid assay; settings: Bos taurus
[5] = system: HL-60; assay: Cytotoxicity against human HL60 cells after 48 hrs by MTT assay; assay type: functional, cell-based; settings: HL-60, 48 h
[6] = system: DNA; assay: Binding affinity to calf thymus DNA assessed as conformational changes in DNA morphology at […] after 2 hrs by circular dichroism analysis; assay type: nucleic-acid assay; settings: Bos taurus
[7] = system: BGC-823; assay: Cytotoxicity against human BGC823 cells after 48 hrs by MTT assay; assay type: functional, cell-based; settings: BGC-823, 48 h
[8] = system: KB; assay: Cytotoxicity against human KB cells after 48 hrs by MTT assay; assay type: functional, cell-based
[9] = system: DNA; assay: Binding affinity to calf thymus DNA assessed as intercalation after 2 hrs by Stern-Volmer plot relative to control; assay type: nucleic-acid assay; settings: Bos taurus

COc1ccc2cc3[n+](cc2c1OCCOCCN1CCCCC1)CCc1cc2c(cc1-3)OCO2
Activity [1]: 19% | ΔTm [2]: 1.5 °C | IC50 [3]: 17.9 µM | K [4]: 1.49 ×10⁶ /M | IC50 [5]: 46.8 µM | Activity [6]: Active | IC50 [7]: 22.2 µM | IC50 [8]: 19.7 µM | KSV [9]: 8.01 ×10⁴ /M

COc1ccc2cc3[n+](cc2c1OCCN1CCOCC1)CCc1cc2c(cc1-3)OCO2
Activity [1]: 17% | ΔTm [2]: 1.4 °C | IC50 [3]: 11.6 µM | K [4]: 3.55 ×10⁸ /M | IC50 [5]: 2.71 µM | Activity [6]: Active | IC50 [7]: 2.82 µM | IC50 [8]: 5.46 µM | KSV [9]: 1.27 ×10⁵ /M

COc1ccc2cc3[n+](cc2c1O)CCc1cc2c(cc1-3)OCO2 [BERBERRUBINE CHLORIDE]
IC50 [3]: 34.3 µM | IC50 [5]: 11.4 µM | IC50 [7]: 7.66 µM | IC50 [8]: 6.92 µM

COc1ccc2cc3[n+](cc2c1OCCOCCOCCN1CCCCC1)CCc1cc2c(cc1-3)OCO2
Activity [1]: 21% | ΔTm [2]: 1.3 °C | IC50 [3]: 33.4 µM | K [4]: 1.86 ×10⁵ /M | IC50 [5]: 45.8 µM | Activity [6]: Active | IC50 [7]: 20.6 µM | IC50 [8]: 33.9 µM | KSV [9]: 1.01 ×10⁵ /M

COc1ccc2cc3[n+](cc2c1OCCOCCOCCN1CCOCC1)CCc1cc2c(cc1-3)OCO2
Activity [1]: 25% | ΔTm [2]: 1.2 °C | IC50 [3]: 9.66 µM | K [4]: 3.45 ×10⁵ /M | IC50 [5]: 14.8 µM | Activity [6]: Active | IC50 [7]: 10.8 µM | IC50 [8]: 10 µM | KSV [9]: 1.79 ×10⁵ /M

COc1ccc2cc3[n+](cc2c1OCCOCCN1CCOCC1)CCc1cc2c(cc1-3)OCO2
Activity [1]: 21% | ΔTm [2]: 1.7 °C | IC50 [3]: 9.44 µM | K [4]: 6.32 ×10⁶ /M | IC50 [5]: 16.4 µM | Activity [6]: Active | IC50 [7]: 11.9 µM | IC50 [8]: 9.93 µM | KSV [9]: 1.82 ×10⁵ /M

COc1ccc2cc3[n+](cc2c1OC)CCc1cc2c(cc1-3)OCO2 [BERBERINE CHLORIDE]
IC50 [3]: 16.3 µM | IC50 [5]: 5.83 µM | IC50 [7]: 7.04 µM | IC50 [8]: 6.03 µM

COc1ccc2cc3[n+](cc2c1OCCN1CCCCC1)CCc1cc2c(cc1-3)OCO2
Activity [1]: 21% | ΔTm [2]: 2.2 °C | IC50 [3]: 27.5 µM | K [4]: 1.27 ×10⁸ /M | IC50 [5]: 6.51 µM | Activity [6]: Active | IC50 [7]: 10.2 µM | IC50 [8]: 17.1 µM | KSV [9]: 7.09 ×10⁴ /M
